Data set [1] in a line: Frontal chromatography retention on bare silica. It is filed as physicochemical. The note with it: PBS pH 7.4, 1 μL min^−1, 100 μM sample. How it is done:
(§1) Particles were packed in capillaries (50 μm or 75 μ[…].; Polymicro Technologies, Phoenix, Ariz.) against Microtight filter assemblies (Upchurch Scientific, Oak Harbor, Wash.). […] Frontal chromatography was performed using a lab-built instrument. Isocratic elution with PBS, pH 7.4, as the mobile phase utilized pressure driven flow that was applied by a Micropro Syringe Pumping System (Eldex, Napa, Calif.) connected to a […] injection valve (Valco, Houston, Tex.) with a 600 nL sample loop. […] The elution profile was monitored by ultraviolet absorbance detection (Model 500 Detector, ChromTech, Apple Valley, Minn.) at 220 nm. Signal from the detector was collected with an A/D converter (NI USB-6221, National Instruments, Austin, Tex.) and software written in LabVIEW (National Instruments). […] Statistical significance was determined using the two-tailed Student's t-test.

Data set [2] is described as follows: Frontal chromatography retention on poly(bis-SorbPC)-coated silica. The format is physicochemical. The note with it: PBS pH 7.4, 1 μL min^−1, 100 μM sample. How it is done:
as §1

Data set [3] is described as follows: TIRFM measurement of Alexa 488-CTB binding to GM1 in polymerized bis-SorbPC PSLB. The note with it: 1 mol % GM1; 1 h static incubation. How it is done: Phosphate buffered saline (PBS) was used to measure the background. Alexa 488-CTB solutions (500 μL) were then injected into the flow cell, sequentially from the lowest concentration to the highest. One hour of static incubation after each injection, the fluorescent signal from GM1-bound Alexa 488-CTB was then measured. The fluorescent signal from dissolved Alexa 488-CTB was negligible so the dissolved protein solution was not flushed from the cell before each measurement. The solid line is a fit of the data to the Hill equation.
CTB labeled with Alexa Fluor 488 (Alexa 488-CTB) was purchased from Invitrogen (Eugene, Oreg.). Total internal reflection fluorescence microscopy (TIRFM) was used to measure the binding of Alexa 488-CTB to 1 mol % GM1 in a polymerized bis-SorbPC PSLB. The TIRFM system has been described previously. The 488 nm line of an Ar^+ laser (Ion Laser Technology) was coupled into a fused silica slide using a 45° prism (Edmund Optics). […] One of the internal reflections at the upper surface of the slide was used to excite fluorescence from Alexa 488-CTB bound to the PSLB. The fluorescence signal was collected using a 4× objective, directed through a 535DF35 (Omega Optical, Brattleboro, Vt.) band pass filter, and detected using CCD (Andor Technology USA, South Windsor, Conn.).

`CC(=O)Oc1ccccc1C(=O)O` [Acetylsalicylic acid]: the Retention time in data set [1] was found to be 10.1 ± 0.2 min; in data set [2], 14.6 ± 0.6 min.
The like results for `O=C(O)c1ccccc1` [Benzoic acid] were, in that order, 9.6 ± 0.2 min and 14.1 ± 0.1 min.
The like results for `O=C(O)c1ccccc1O` [Salicylic acid] were, in that order, 9.7 ± 0.1 min and 14.3 ± 0.1 min.
On to “Alexa 488-CTB: CTB labeled with Alexa Fluor 488”, for which, in data set [3], the “dissolved concentration that saturates the PSLB” value is reported as “approximately 0.1 μM”.

These data come from patent US10576456B2, “Systems and methods of preparing stabilized lipid assemblies” (ARIZONA BOARD OF REGENTS ON BEHALF OF THE UNIVERSITY OF …, priority 2014, dated 2020).
